Results taken from ChEMBL document CHEMBL3864159, “Variation of the aryl substituent on the piperazine ring within the 4-(piperazin-1-yl)-2,6-di(pyrrolidin-1-yl)pyrimidine scaffold unveils potent, non-competitive inhibitors of the inflammatory caspases” (Bioorg Med Chem Lett, 2016).
Activity calls are given as the source filed them. The calls are words filed in the database; no cut-off is given here.

Assays:
[1] = species on record: Homo sapiens; test: Selectivity ratio of Ki for human recombinant N-terminal His-tagged DTT-activated caspase-1 expressed in Escherichia coli to Ki for human recombinant DTT-activated caspase-5 expressed in Escherichia coli
[2] = species on record: Homo sapiens; test: Selectivity ratio of Ki for human recombinant N-terminal His-tagged DTT-activated caspase-4 expressed in Escherichia coli to Ki for human recombinant DTT-activated caspase-5 expressed in Escherichia coli
[3] = target: T1, Papain (Carica papaya) (UniProt P00784); test: Inhibition of papaya papain at 5 uM preincubated for 10 mins followed by Suc-LLVY-AMC substrate addition by fluorescence assay relative to control
T1 sequence (whole entry): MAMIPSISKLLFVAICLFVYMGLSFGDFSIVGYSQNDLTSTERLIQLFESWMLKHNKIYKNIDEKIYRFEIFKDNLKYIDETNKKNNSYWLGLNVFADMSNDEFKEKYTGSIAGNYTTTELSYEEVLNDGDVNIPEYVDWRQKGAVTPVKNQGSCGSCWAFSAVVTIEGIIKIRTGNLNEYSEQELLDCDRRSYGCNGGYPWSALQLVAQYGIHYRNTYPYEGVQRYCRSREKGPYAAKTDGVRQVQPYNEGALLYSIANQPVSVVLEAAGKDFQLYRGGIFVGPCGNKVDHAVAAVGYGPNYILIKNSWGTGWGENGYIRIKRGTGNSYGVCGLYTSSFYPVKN

[4] = target: T2, Calpain-1 catalytic subunit (Homo sapiens) (UniProt P07384); test: Inhibition of full-length human calpain-1 at 5 uM preincubated for 10 mins followed by Suc-LLVY-AMC substrate addition by fluorescence assay relative to control
T2 sequence (whole entry): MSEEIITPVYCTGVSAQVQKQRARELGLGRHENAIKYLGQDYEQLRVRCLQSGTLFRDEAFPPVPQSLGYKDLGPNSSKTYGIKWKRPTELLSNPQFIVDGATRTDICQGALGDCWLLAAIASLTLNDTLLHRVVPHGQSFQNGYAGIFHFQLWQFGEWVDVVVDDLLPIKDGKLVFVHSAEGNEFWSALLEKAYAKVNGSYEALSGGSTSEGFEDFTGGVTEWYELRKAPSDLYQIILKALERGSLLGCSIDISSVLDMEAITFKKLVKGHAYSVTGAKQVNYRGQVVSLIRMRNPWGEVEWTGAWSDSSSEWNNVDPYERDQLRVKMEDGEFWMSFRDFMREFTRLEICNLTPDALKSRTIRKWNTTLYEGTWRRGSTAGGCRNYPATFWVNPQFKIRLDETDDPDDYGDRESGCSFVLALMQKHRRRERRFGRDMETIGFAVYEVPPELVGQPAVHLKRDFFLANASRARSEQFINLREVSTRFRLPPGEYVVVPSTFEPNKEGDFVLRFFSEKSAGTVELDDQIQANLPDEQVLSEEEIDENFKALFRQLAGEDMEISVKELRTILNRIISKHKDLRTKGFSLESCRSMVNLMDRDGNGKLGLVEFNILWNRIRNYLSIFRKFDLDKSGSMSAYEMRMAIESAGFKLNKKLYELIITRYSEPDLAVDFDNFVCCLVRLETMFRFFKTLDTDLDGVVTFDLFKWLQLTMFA

[5] = target: Cathepsin B (Homo sapiens) (UniProt P07858); test: Inhibition of human recombinant cathepsin-B at 5 uM preincubated for 10 mins followed by Z-FR-AMC substrate addition by fluorescence assay
[6] = target: T3, Cathepsin K (Homo sapiens) (UniProt P43235); test: Inhibition of human recombinant cathepsin-K assessed as residual activity at 5 uM preincubated for 10 mins followed by Z-FR-AMC substrate addition by fluorescence assay relative to control
T3 sequence (whole entry): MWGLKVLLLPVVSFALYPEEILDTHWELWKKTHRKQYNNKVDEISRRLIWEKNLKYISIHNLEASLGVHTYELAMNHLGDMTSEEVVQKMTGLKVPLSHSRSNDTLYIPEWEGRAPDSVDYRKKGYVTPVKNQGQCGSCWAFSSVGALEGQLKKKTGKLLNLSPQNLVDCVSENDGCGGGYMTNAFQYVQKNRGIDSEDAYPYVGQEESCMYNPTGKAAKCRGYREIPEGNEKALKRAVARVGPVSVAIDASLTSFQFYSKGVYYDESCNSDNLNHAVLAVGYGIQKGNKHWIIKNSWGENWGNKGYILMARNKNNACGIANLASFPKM

[7] = target: T4, Caspase-1 (Homo sapiens) (UniProt P29466); test: Non-competitive inhibition of human recombinant N-terminal His-tagged DTT-activated caspase-1 expressed in Escherichia coli using 5 to 50 uM Ac-WEHD-AMC as substrate preincubated for 30 mins followed by substrate addition by Michaelis-Menten plot analysis
T4 sequence (whole entry): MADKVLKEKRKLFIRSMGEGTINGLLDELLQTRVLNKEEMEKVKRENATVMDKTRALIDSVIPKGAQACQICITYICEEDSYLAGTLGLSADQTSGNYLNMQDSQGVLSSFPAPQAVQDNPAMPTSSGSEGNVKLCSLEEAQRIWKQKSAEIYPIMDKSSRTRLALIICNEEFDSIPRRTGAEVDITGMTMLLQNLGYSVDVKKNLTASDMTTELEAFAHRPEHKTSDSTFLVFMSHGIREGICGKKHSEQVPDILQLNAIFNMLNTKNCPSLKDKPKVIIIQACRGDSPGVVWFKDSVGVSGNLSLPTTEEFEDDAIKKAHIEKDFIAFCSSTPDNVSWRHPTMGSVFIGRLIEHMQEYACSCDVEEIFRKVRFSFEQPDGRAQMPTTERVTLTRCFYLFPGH

[8] = species on record: Homo sapiens; test: Selectivity ratio of Ki for human recombinant DTT-activated caspase-5 expressed in Escherichia coli to Ki for human recombinant N-terminal His-tagged DTT-activated caspase-4 expressed in Escherichia coli
[9] = target: T3, Cathepsin K (Homo sapiens); test: Inhibition of human recombinant cathepsin-K at 5 uM preincubated for 10 mins followed by Z-FR-AMC substrate addition by fluorescence assay
[10] = species on record: Homo sapiens; test: Selectivity ratio of Ki for human recombinant N-terminal His-tagged DTT-activated caspase-1 expressed in Escherichia coli to Ki for human recombinant N-terminal His-tagged DTT-activated caspase-4 expressed in Escherichia coli

| Ratio Ki [1] | Ratio Ki [2] | inhibition [3] | inhibition [4] | inhibition [5] | Activity [6] [%] | inhibition [7] | Ratio Ki [8] | inhibition [9] | Ratio Ki [10] | Compound |
| --- | --- | --- | --- | --- | --- | --- | --- | --- | --- | --- |
| 10 | 10 | – | – | – | – | – | – | – | – | O=[N+]([O-])c1ccc(CN2CCN(c3cc(N4CCCC4)nc(N4CCCC4)n3)CC2)cc1 |
| – | – | Active | Active | Active | 78 | – | – | – | – | COc1cccc(CN2CCN(c3cc(N4CCCC4)nc(N4CCCC4)n3)CC2)c1 |
| – | – | Active | Active | Active | – | Active | 2 | Active | 2 | c1ccc(CCN2CCN(c3cc(N4CCCC4)nc(N4CCCC4)n3)CC2)cc1 |
| 10 | 10 | – | – | – | – | – | – | – | – | c1cc(CN2CCN(c3cc(N4CCCC4)nc(N4CCCC4)n3)CC2)ccn1 |
| 10 | 10 | Active | Active | Active | – | – | – | Active | – | c1cncc(CN2CCN(c3cc(N4CCCC4)nc(N4CCCC4)n3)CC2)c1 |
